Source: paper PMC5515969, “Effects of 31 FDA approved small-molecule kinase inhibitors on isolated rat liver mitochondria” (Archives of Toxicology, 2016)
Where two headings read alike, the source gives them in different places. Marks after values point to notes of the source that are not given here.

Legend:
[1] = test system: isolated rat liver mitochondria; test: Mitochondrial toxicity, any endpoint, intact mitochondria and submitochondrial particles; type: biochemical; conditions: for lowest concentration causing significant mitochondrial toxicity: any endpoint
Experimental: Rats were anesthetized by an intraperitoneal injection of Nembutal and the liver perfused with PBS to remove the blood. The liver was then cut into small pieces and homogenized using a Dounce type homogenizer in the ice-cold isolation buffer (IB) containing 200 mM sucrose, 10 mM Tris-MOPS, 1 mM EGTA (pH 7.4). The sample was then centrifuged at 600g for 10 min. The supernatant was further centrifuged at 7500g for 10 min, and the pellets was washed once with the IB and centrifuged again at 7500g for 10 min to collect mitochondria. […] Before drug treatment, the protein concentration was adjusted to 1 mg/ml using appropriate buffer. […] Briefly, mitochondrial and cytosolic fractions from four different preparations using four rats were diluted using the Laemmli protein loading buffer and subject to SDS-PAGE with 4–20% gradient gels. The proteins were blotted to PVDF membranes and detected using antibodies against GAPDH, ATP5A, UQCRC2, SDHB, and NDUFB8.
The aliquoted stock solutions were kept for less than one month and each tube was used only once. The KIs were added to the mitochondria at 1:1000 dilutions. […] The Cmax data were from clinical trials which used FDA recommend dosages, route of administration, and duration. […] The final concentration of DMSO for drug treatment was always 0.1%, and control treatments were 0.1% DMSO.

[2] = cited from earlier work
[3] = test system: isolated rat liver mitochondria; conditions: for lowest concentration causing cytochrome c release: rat, 30 min, pH 7.4
[4] = cited from earlier work; remark: listed apart in the source
[5] = test system: isolated rat liver mitochondria; test: Mitochondrial ROS production (CM-H2DCFDA)
[6] = test system: isolated rat liver mitochondria; test: Mitochondrial oxygen consumption (glutamate/malate or succinate driven, state 4 and state 3); type: biochemical; conditions: for Glutamate/malate driven respiration State 3 / Glutamate/malate driven respiration State 4 / Succinate-driven respiration State 3 / Succinate-driven respiration State 4: oxygen consumption, DMSO-treated = 1; for State 3 respiration driven by succinate at 10XCmax: key: 0 indicates that the drug had no effects (negative); for State 3 respiration driven by succinate at 1XCmax: key: 0 indicates that the drug had no effects (negative)
How it was run: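 Oxygen uptake on glutamate/malate or on succinate defined state 4; ADP added 3 min later gave state 3. Mitochondria isolated from rat liver by differential centrifugation, adjusted to 1 mg/ml and pretreated 5 min with inhibitor (0.1% DMSO final). Values relative to DMSO control, set to 1.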

RCC I = RCC I activity in submitochondrial particles; type: biochemical, rat; design: key to RCC I at 10XCmax / RCC I at 100XCmax / RCC I at 50XCmax / RCC I at 30XCmax / RCC I at 20XCmax: activity relative to DMSO-treated controls (control set as 1 = 100%)
How it was run: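 Kinase inhibitors were preincubated 15 min with submitochondrial particles (1 mg/ml) before complex activities were measured. RCC I was the rotenone-sensitive portion (activity without minus with rotenone). RCC I/V was read at 340 nm and RCC II at 600 nm every 1 min for 6 min. RCC III and IV were read at 550 nm every 10 s for 2 min. Activities are normalized to DMSO controls set as 1.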

RCC II = target: T1, RCC II (Rattus norvegicus, UniProt P21913+Q641Z9+Q6PCT8+Q920L2); test: RCC II activity in submitochondrial particles; type: biochemical; design: key: activity relative to DMSO-treated controls (control set as 1 = 100%); conditions: DMSO treated samples set as 1
T1 construct: Submitochondrial particles were prepared by subjecting the intact mitochondria to three successive freeze–thaw cycles; from tissue; host or cells: rat liver mitochondria, used as submitochondrial particles
How it was run: (§1)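 Absorbance kinetics: A340 (RCC I, V) and A600 (RCC II) read each minute over 6 min, A550 (RCC III, IV) every 10 s over 2 min; RCC I taken as […]. Particles (1 mg/ml) pretreated 15 min with compound; DMSO-treated activity = 1.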

RCC V = RCC V activity in submitochondrial particles; type: biochemical, rat; conditions: 5XCmax; DMSO treated samples set as 1; note: key: 0 indicates that the drug had no effects (negative)
How it was run: as §1

[7] = test system: isolated rat liver mitochondria; test: Mitochondrial inner membrane potential (MMP), Rhodamine 123; type: biochemical; conditions: difference in signal between KI and DMSO treated samples at the end of experiments
Source text: Fig. 3 KI effects on mitochondrial inner membrane potential (MMP). […] In a, c, data are means and standard derivations from three separate experiments. *p < 0.05 as compared to DMSO-treated samples at the end of experiments. In b, data are means of two independent experiments

[8] = test system: isolated rat liver mitochondria; test: Mitochondrial swelling (absorbance at 535 nm); type: biochemical; conditions: difference in signal between KI and DMSO treated samples at the end of experiments; for Swelling 5XCmax: key: 0 indicates that the drug had no effects (negative)
[9] = ref product labeling; cited from earlier work
[10] = human therapeutic Cmax at FDA recommended dosages, ref product labeling and drug approval packages at the official FDA website
[11] = 1XCmax, DMSO treated samples set as 1
[12] = 2.5XCmax, DMSO treated samples set as 1
[13] = 5XCmax, DMSO treated samples set as 1
[14] = 10XCmax, DMSO treated samples set as 1
[15] = 20XCmax, DMSO treated samples set as 1
[16] = 30XCmax, DMSO treated samples set as 1

T1 sequence (Q920L2 35-656): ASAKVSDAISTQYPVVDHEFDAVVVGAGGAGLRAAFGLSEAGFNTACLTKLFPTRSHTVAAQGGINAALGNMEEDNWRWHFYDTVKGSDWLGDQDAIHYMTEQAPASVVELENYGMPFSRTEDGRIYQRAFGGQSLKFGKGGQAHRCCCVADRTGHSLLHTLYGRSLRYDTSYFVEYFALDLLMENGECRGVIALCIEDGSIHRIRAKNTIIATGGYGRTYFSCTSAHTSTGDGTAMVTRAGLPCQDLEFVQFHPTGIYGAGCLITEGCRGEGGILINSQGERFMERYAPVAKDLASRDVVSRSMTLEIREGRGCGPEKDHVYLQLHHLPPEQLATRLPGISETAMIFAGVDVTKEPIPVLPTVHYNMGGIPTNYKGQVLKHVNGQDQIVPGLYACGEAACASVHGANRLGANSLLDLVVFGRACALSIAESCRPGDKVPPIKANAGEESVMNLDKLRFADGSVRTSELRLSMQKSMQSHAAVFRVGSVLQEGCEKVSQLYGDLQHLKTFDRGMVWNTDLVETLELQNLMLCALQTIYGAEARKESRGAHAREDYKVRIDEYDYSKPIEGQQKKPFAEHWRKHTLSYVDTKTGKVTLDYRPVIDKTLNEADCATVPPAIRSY
T1 sequence (P21913 31-282): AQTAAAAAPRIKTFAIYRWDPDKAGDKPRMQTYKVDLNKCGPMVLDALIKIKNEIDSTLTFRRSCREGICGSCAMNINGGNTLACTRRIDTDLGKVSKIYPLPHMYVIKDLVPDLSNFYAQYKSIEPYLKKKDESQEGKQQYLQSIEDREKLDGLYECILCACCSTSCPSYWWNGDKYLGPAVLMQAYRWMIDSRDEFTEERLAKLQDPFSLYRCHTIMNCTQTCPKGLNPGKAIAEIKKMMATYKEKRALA
T1 sequence (Q641Z9 1-169): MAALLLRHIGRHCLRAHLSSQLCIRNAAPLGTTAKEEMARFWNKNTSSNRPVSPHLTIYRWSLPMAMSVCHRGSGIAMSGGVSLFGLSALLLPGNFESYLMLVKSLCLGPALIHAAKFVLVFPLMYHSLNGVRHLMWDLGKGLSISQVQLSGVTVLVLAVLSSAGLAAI
T1 sequence (Q6PCT8 57-159): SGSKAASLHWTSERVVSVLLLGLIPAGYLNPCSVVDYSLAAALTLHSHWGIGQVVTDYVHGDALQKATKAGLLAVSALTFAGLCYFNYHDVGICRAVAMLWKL

CS(=O)(=O)CCNCc1ccc(-c2ccc3ncnc(Nc4ccc(OCc5cccc(F)c5)c(Cl)c4)c3c2)o1 [Lapatinib]
mitochondrial injury ([1]; concentrations equal to 100-fold Cmax): mitochondrial injury was induced
labeling for DILI ([2]; in vivo): BBW: fatal DILI
DILI potential (based on labeling) ([2]; ref FDA product labeling): 1

C=CC(=O)Nc1cc(Nc2nccc(-c3cn(C)c4ccccc34)n2)c(OC)cc1N(C)CCN(C)C [Osimertinib]
lowest concentration causing significant mitochondrial toxicity [1]: 30 fold Cmax
lowest concentration causing cytochrome c release [3]: 100 fold Cmax
Cmax [4, 10]: 0.5 µM
lowest concentration triggering ROS overproduction [5]: 30 fold Cmax

N#CC[C@H](C1CCCC1)n1cc(-c2ncnc3[nH]ccc23)cn1 [Ruxolitinib]
Glutamate/malate driven respiration State 3 ([6]; 20-fold Cmax): 0.62 ± 0.05
Glutamate/malate driven respiration State 4 ([6]; 20-fold Cmax): 0.81 ± 0.05
Succinate-driven respiration State 3 ([6]; 20-fold Cmax): 0.90 ± 0.13
Succinate-driven respiration State 4 ([6]; 20-fold Cmax): 1.00 ± 0.14
Glutamate/malate driven respiration State 3 ([6]; 30-fold Cmax): 0.54 ± 0.02
Glutamate/malate driven respiration State 4 ([6]; 30-fold Cmax): 1.00 ± 0.09
Succinate-driven respiration State 3 ([6]; 30-fold Cmax): 1.05 ± 0.11
Succinate-driven respiration State 4 ([6]; 30-fold Cmax): 1.08 ± 0.09
Glutamate/malate driven respiration State 3 ([6]; 50-fold Cmax): 0.49 ± 0.06
Glutamate/malate driven respiration State 4 ([6]; 50-fold Cmax): 0.97 ± 0.20
Succinate-driven respiration State 3 ([6]; 50-fold Cmax): 0.87 ± 0.08
Succinate-driven respiration State 4 ([6]; 50-fold Cmax): 1.07 ± 0.07
Glutamate/malate driven respiration State 3 ([6]; 100-fold Cmax): 0.28 ± 0.06
Glutamate/malate driven respiration State 4 ([6]; 100-fold Cmax): 0.71 ± 0.08
Succinate-driven respiration State 3 ([6]; 100-fold Cmax): 0.99 ± 0.03
Succinate-driven respiration State 4 ([6]; 100-fold Cmax): 1.17 ± 0.12
lowest concentration significantly affecting mitochondrial oxygen consumption ([6]; tested at 1 to 100-fold Cmax): 20 fold Cmax
lowest concentration causing significant mitochondrial toxicity [1]: 20 fold Cmax
lowest concentration causing cytochrome c release [3]: 50 fold Cmax
Cmax [4, 10]: 1.2 µM
DILI potential (based on labeling) ([2]; ref FDA product labeling): 0

CCN(CC)CCNC(=O)c1c(C)[nH]c(/C=C2\C(=O)Nc3ccc(F)cc32)c1C [Sunitinib]
effects on intact mitochondria or submitochondrial particles ([1]; highest concentrations tested): no effects
Cmax [4, 10]: 0.12 µM
Cmax ([4]; ref Porceddu et al. [2012]): 70.8 µM
labeling for DILI ([2]; W&P warnings and precautions, BBW black box warnings, ref FDA product labeling): BBW: fatal DILI
DILI potential (based on labeling) ([2]; ref FDA product labeling): 1

COc1cc2nccc(Oc3ccc(NC(=O)C4(C(=O)Nc5ccc(F)cc5)CC4)cc3)c2cc1OC [cabozantinib malate]
State 3 respiration driven by succinate at 1XCmax [6, 11]: 0
State 4 respiration driven by succinate at 1XCmax [6, 11]: 0
State 3 respiration driven by succinate at 2.5XCmax [6, 12]: 0
State 4 respiration driven by succinate at 2.5XCmax [6, 12]: 0
State 3 respiration driven by succinate at 5XCmax [6, 13]: 0
State 4 respiration driven by succinate at 5XCmax [6, 13]: 0
State 3 respiration driven by succinate at 10XCmax [6, 14]: 0
State 4 respiration driven by glutamate/malate at 10XCmax [6, 14]: 1.46±0.08
State 4 respiration driven by succinate at 10XCmax [6, 14]: 1.23±0.11
State 3 respiration driven by succinate at 20XCmax [6, 15]: 0
State 4 respiration driven by glutamate/malate at 20XCmax [6, 15]: 1.30±0.15
State 4 respiration driven by succinate at 20XCmax [6, 15]: 1.24±0.05
State 3 respiration driven by succinate at 30XCmax [6, 16]: 0
State 4 respiration driven by glutamate/malate at 30XCmax [6, 16]: 1.55±0.06
State 4 respiration driven by succinate at 30XCmax [6, 16]: 1.35±0.18
RCC I at 10XCmax (RCC I; [14]): 0
RCC I at 30XCmax (RCC I; 30XCmax, DMSO-treated = 100): 80.97±2.99
RCC II at 1.0XCmax (RCC II; 1.0XCmax): 0
RCC II at 2.5XCmax (RCC II; 2.5XCmax): 0
RCC II at 5XCmax (RCC II; 5XCmax): 0
RCC II at 10XCmax (RCC II; 10XCmax): 0
RCC II at 20XCmax (RCC II; 20XCmax): 0
RCC II at 30XCmax (RCC II; 30XCmax): 79.26±6.01
RCC V at 5XCmax (RCC V): 0
MMP measured by Rhodamine 123 at 1XCmax ([7]; 1XCmax): 0
MMP measured by Rhodamine 123 at 2.5XCmax ([7]; 2.5XCmax): 0
MMP measured by Rhodamine 123 at 5XCmax ([7]; 5XCmax): 0
MMP measured by Rhodamine 123 at 10XCmax ([7]; 10XCmax): 945±179*
MMP measured by Rhodamine 123 at 20XCmax ([7]; 20XCmax): 1828±818*
MMP measured by Rhodamine 123 at 30XCmax ([7]; 30XCmax): 2071±803*
Swelling 1XCmax ([8]; 1XCmax): 0
Swelling 2.5XCmax ([8]; 2.5XCmax): 0
Swelling 5XCmax ([8]; 5XCmax): 0
Swelling 10XCmax ([8]; 10XCmax): 0
Swelling 20XCmax ([8]; 20XCmax): 0.48±0.01
Swelling 30XCmax ([8]; 30XCmax): 0.46±0.01
Cytochrome c release 1XCmax ([3]; 1XCmax, positive control alamethicin treated samples): 0
Cytochrome c release 2.5XCmax ([3]; 2.5XCmax, positive control alamethicin treated samples): 0
Cytochrome c release 5XCmax ([3]; 5XCmax, positive control alamethicin treated samples): 0
Cytochrome c release 10XCmax ([3]; 10XCmax, positive control alamethicin treated samples): 0
Cytochrome c release 20XCmax ([3]; 20XCmax, positive control alamethicin treated samples): 0
Cytochrome c release 30XCmax ([3]; 30XCmax, positive control alamethicin treated samples): 0
Cmax (ng or µg/ml) ([4]; human therapeutic maximal blood concentration, ref product labeling): 1.64 µg/mL
Cmax ([4]; read-out: Cmax at µM, human therapeutic maximal blood concentration, ref product labeling): 2.58 µM
DILI potential (based on labeling) ([2]; 1 DILI positive, 0 negative according to labeling, ref product labeling): 0
Potential for cardiotoxicity (based on labeling) [9]: 0
ROS measured by CM-H2DCFDA at 1XCmax [5, 11]: 0
ROS measured by CM-H2DCFDA at 2.5XCmax [5, 12]: 0
ROS measured by CM-H2DCFDA at 5XCmax [5, 13]: 0
ROS measured by CM-H2DCFDA at 10XCmax [5, 14]: 0
ROS measured by CM-H2DCFDA at 20XCmax [5, 15]: 0
ROS measured by CM-H2DCFDA at 30XCmax [5, 16]: 0
